A value given as a limit tells only on which side of the number the result lay.

Targets include Adenosine receptor A2a (Homo sapiens, UniProt P29274); Motilin receptor (Homo sapiens, UniProt O43193); Melanocortin receptor 3 (Homo sapiens, UniProt P41968).
In the next test the target is T1, Endothelin-1 receptor (Homo sapiens, UniProt P25101).
T1 sequence (P25101 whole entry): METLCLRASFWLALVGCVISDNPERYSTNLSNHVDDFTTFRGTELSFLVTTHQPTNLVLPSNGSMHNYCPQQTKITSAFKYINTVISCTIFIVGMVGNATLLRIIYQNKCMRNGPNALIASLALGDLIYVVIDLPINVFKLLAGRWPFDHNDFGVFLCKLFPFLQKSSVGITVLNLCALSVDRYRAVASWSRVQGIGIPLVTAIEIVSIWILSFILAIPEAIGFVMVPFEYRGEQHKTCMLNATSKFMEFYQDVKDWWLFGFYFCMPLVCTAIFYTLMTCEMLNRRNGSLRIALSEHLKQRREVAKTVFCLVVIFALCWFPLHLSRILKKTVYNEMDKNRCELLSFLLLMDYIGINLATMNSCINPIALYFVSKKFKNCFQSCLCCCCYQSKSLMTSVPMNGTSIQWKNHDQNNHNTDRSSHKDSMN

The target of the next test is T2, Glucocorticoid receptor (Homo sapiens, UniProt P04150).
T2 sequence (P04150 whole entry): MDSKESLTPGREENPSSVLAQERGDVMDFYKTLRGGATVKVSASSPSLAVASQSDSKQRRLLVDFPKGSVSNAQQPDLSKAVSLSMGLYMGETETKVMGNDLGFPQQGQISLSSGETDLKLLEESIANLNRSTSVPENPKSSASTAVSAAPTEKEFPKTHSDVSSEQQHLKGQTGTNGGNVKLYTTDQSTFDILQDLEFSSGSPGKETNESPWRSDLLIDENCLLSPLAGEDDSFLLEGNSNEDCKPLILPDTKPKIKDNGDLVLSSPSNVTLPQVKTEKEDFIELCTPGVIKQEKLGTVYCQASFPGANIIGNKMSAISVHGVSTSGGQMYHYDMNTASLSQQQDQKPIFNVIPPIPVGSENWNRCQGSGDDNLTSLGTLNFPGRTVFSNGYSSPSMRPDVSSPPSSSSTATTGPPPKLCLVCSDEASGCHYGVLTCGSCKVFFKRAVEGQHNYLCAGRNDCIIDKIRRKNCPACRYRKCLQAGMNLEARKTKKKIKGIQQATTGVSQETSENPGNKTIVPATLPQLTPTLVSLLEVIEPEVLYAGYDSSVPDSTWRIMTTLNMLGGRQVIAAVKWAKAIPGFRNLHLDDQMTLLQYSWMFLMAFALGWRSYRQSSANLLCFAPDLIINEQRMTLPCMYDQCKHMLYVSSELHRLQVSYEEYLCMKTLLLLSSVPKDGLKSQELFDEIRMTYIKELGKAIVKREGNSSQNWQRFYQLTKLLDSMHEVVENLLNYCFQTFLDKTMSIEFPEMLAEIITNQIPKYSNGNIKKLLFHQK

Test [1] concerns the target Muscarinic acetylcholine receptor M3 (Homo sapiens, UniProt P20309).
Test [2] has as its target T3, Amine oxidase [flavin-containing] A (Homo sapiens, UniProt P21397).
T3 sequence (P21397 whole entry): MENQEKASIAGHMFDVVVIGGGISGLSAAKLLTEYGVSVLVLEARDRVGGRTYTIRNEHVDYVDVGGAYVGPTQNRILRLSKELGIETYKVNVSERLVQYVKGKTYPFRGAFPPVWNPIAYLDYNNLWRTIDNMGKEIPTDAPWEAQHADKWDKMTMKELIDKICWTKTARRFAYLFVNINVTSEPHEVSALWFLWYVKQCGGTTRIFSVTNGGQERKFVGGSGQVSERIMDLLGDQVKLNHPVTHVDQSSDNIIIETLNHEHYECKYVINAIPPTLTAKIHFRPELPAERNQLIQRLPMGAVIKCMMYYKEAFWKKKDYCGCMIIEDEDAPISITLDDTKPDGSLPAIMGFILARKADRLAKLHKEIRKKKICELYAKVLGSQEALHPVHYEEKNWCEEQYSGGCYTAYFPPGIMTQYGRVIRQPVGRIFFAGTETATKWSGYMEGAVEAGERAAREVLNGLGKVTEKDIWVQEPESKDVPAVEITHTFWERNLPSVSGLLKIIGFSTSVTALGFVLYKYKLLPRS
The format is functional.

Test [3] addresses Beta-2 adrenergic receptor (Homo sapiens, UniProt P07550).
In test [4] the target is Delta-type opioid receptor (Homo sapiens, UniProt P41143).
A further test deals with T4, B2 bradykinin receptor (Homo sapiens, UniProt P30411).
T4 sequence (P30411 whole entry): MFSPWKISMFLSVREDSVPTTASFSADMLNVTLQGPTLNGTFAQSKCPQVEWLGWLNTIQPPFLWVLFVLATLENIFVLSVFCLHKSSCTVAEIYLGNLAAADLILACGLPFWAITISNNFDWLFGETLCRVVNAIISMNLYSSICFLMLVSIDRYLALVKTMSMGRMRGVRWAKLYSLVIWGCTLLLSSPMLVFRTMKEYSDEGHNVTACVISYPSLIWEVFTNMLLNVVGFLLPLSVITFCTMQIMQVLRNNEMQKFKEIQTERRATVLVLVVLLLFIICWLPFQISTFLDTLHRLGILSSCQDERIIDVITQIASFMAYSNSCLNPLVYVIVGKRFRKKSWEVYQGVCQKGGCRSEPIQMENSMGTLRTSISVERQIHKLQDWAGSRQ

Test [5] addresses 5-hydroxytryptamine receptor 2A (Homo sapiens, UniProt P28223). The format is functional, cell-based.
The next test has as its target T5, Thromboxane A2 receptor (Homo sapiens, UniProt P21731).
T5 sequence (P21731 whole entry): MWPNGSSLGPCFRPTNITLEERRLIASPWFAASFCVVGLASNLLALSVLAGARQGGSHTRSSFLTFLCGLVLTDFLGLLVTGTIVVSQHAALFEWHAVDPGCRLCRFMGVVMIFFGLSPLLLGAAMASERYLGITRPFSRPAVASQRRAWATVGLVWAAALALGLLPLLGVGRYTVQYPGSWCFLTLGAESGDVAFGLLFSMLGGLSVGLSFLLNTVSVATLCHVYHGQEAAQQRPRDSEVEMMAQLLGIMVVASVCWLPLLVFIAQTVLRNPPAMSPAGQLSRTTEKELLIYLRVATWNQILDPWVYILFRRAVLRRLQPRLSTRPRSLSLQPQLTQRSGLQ

For test [6], the target named is Neuronal acetylcholine receptor subunit alpha-4 (Homo sapiens, UniProt P43681).
Note: assay procedure not described here.

Chain of Motilin receptor (O43193 whole entry): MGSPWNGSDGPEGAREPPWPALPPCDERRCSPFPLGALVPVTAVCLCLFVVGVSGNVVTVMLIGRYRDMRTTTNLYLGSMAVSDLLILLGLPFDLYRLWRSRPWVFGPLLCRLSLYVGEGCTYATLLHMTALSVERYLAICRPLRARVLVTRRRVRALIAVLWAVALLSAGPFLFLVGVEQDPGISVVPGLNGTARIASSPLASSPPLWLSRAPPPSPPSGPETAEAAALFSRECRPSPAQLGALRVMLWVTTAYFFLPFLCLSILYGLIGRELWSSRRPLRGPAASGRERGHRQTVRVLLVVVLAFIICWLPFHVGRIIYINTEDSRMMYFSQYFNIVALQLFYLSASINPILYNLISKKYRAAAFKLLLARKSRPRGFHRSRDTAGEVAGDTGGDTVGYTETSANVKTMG
Chain of Muscarinic acetylcholine receptor M3 (P20309 whole entry): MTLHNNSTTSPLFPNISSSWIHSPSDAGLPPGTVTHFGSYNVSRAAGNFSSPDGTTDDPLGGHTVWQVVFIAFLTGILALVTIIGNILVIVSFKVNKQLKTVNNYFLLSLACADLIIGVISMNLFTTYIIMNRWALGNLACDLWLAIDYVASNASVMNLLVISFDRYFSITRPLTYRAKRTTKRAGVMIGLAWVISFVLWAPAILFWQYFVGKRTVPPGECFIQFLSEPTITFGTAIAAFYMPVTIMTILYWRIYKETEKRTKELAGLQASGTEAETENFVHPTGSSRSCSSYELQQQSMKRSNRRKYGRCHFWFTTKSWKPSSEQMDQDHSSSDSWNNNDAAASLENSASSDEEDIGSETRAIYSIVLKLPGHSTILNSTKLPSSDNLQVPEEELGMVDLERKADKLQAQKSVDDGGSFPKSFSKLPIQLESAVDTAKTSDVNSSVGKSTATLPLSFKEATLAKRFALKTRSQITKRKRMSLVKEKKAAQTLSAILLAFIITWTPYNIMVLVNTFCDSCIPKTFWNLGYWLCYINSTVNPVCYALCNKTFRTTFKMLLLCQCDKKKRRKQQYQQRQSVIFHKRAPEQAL
Chain of Neuronal acetylcholine receptor subunit alpha-4 (P43681 whole entry): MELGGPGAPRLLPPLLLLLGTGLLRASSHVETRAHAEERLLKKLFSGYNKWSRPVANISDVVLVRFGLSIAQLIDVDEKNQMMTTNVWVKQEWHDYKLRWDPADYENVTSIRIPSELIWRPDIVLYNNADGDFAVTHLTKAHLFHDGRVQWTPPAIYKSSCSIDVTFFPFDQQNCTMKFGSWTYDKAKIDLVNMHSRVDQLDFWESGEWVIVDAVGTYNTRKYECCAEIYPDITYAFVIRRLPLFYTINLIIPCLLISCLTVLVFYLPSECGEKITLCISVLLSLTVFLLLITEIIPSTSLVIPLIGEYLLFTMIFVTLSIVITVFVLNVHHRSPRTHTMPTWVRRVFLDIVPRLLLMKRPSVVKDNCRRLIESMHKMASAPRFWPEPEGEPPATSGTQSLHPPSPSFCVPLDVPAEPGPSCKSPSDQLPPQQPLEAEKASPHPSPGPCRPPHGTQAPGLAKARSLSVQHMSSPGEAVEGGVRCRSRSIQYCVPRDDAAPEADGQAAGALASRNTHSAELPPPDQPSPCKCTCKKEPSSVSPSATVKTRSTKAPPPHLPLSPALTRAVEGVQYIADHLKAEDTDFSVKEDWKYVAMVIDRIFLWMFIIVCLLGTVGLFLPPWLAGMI
Chain of Melanocortin receptor 3 (P41968 whole entry): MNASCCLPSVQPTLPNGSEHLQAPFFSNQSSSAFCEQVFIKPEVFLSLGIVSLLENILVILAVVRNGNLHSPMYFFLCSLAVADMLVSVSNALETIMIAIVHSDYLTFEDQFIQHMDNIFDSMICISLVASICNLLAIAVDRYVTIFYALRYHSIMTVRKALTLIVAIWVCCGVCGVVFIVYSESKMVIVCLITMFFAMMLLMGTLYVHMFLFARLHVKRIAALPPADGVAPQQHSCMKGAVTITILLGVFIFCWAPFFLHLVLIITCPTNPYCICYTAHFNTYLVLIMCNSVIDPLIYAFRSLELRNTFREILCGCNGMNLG
Chain of Beta-2 adrenergic receptor (P07550 whole entry): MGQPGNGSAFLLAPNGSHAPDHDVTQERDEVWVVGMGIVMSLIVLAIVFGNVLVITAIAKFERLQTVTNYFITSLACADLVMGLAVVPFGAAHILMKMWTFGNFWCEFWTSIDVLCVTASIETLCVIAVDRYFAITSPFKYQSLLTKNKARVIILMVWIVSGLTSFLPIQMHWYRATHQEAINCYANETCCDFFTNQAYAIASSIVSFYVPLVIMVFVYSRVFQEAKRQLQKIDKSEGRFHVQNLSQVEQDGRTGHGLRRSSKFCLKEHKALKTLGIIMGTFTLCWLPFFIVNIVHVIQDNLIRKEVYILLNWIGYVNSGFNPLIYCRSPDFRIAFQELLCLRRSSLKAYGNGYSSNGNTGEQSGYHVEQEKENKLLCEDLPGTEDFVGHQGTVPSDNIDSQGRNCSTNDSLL
Chain of Delta-type opioid receptor (P41143 whole entry): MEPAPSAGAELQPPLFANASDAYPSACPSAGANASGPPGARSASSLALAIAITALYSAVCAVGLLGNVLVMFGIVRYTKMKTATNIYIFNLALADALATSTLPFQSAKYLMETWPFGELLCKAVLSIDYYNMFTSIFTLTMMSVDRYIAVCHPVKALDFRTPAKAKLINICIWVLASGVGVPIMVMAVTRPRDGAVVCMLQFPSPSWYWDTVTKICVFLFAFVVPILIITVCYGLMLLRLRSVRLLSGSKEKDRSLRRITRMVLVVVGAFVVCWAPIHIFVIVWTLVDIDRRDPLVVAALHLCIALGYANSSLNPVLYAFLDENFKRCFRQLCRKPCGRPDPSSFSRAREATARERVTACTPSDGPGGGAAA
Chain of 5-hydroxytryptamine receptor 2A (P28223 whole entry): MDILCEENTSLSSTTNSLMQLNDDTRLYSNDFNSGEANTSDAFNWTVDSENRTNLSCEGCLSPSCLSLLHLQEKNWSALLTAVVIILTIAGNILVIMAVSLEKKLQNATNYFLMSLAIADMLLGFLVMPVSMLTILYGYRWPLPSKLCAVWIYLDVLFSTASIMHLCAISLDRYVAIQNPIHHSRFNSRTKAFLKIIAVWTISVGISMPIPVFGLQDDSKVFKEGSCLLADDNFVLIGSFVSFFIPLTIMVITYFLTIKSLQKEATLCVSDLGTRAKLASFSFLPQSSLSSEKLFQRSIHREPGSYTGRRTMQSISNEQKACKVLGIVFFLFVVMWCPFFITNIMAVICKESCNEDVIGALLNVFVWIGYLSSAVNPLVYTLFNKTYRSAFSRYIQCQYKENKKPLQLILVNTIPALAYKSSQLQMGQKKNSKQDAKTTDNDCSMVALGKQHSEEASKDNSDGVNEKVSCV
Chain of Adenosine receptor A2a (P29274 whole entry): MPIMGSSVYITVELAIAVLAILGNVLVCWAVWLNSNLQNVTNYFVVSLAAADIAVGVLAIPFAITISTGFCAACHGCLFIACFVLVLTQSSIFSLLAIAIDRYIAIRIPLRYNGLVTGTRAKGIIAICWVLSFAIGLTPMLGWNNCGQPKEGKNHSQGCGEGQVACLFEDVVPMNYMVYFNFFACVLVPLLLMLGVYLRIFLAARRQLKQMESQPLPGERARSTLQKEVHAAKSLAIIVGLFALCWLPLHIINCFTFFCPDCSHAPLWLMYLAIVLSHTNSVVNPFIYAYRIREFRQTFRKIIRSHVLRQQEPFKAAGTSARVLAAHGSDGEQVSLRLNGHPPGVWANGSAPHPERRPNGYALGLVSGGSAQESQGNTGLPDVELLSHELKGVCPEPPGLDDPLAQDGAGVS

Consider `CCN(CC)C(=O)C1CN2CCc3cc(OC)c(OC)cc3C2CC1OC(C)=O` (configuration not stated) [BENZQUINAMIDE], for which the AC50 (on Endothelin-1 receptor; at Adenosine receptor A2a; at Glucocorticoid receptor; in test [1]; on Motilin receptor; in test [2]) was greater than 30 µM throughout. Besides, the AC50 (as a rule, the midpoint of the concentration-response curve, whichever way the signal moves) in [3] is greater than 10 µM; in [4] it was greater than 30 µM; at B2 bradykinin receptor it was greater than 30 µM; in [5] it was 1.57 µM; on Thromboxane A2 receptor it was greater than 10 µM; in test [6] it was greater than 30 µM. In addition, at Melanocortin receptor 3, the AC50 is greater than 30 µM.
Take `CCC(C)(Oc1ccc(C2(c3ccc(OC(C)(CC)C(=O)O)cc3)CCCCC2)cc1)C(=O)O` (configuration not stated) [CLINOFIBRATE]: the AC50 (on Endothelin-1 receptor; at Adenosine receptor A2a; at Glucocorticoid receptor; in [1]; on Motilin receptor; in test [2]) was greater than 30 µM each time. The AC50 (in [3]; in [4]; at B2 bradykinin receptor; in [5]; on Thromboxane A2 receptor; in [6]) was greater than 30 µM throughout. The compound also showed an AC50 on Melanocortin receptor 3 greater than 30 µM.
On to `CCCCC[C@H](O)/C=C/[C@H]1[C@H](O)CC(=O)[C@@H]1C/C=C\CCCC(=O)O` [DINOPROSTONE], for which the AC50 (on Endothelin-1 receptor; on Adenosine receptor A2a; at Glucocorticoid receptor; in test [1]; on Motilin receptor; in test [2]) was greater than 30 µM in each case. Further, the AC50 in [3] is greater than 30 µM; in test [4], greater than 30 µM; at B2 bradykinin receptor, greater than 30 µM; in test [5] it was greater than 30 µM; on Thromboxane A2 receptor, 3.5 µM; in test [6] it was greater than 30 µM. On Melanocortin receptor 3, the concentration at half-maximal activity (AC50) was greater than 30 µM.
Take `CCCN(CC)C(CC)C(=O)Nc1c(C)cccc1C` (configuration not stated) [ETIDOCAINE]: the AC50 (at Endothelin-1 receptor; at Adenosine receptor A2a; at Glucocorticoid receptor; in test [1]; on Motilin receptor; in [2]) was greater than 30 µM each time. The AC50 (in [3]; in [4]; at B2 bradykinin receptor; in test [5]; on Thromboxane A2 receptor; in test [6]) was greater than 30 µM in each case. Also, the AC50 on Melanocortin receptor 3 was greater than 30 µM.
With `O=C(O)c1ccccc1Nc1cccc(C(F)(F)F)c1` [FLUFENAMIC ACID], the AC50 on Endothelin-1 receptor is greater than 30 µM; at Adenosine receptor A2a it was greater than 30 µM; on Glucocorticoid receptor, greater than 30 µM; in [1], 0.92 µM; on Motilin receptor, greater than 10 µM; in test [2], greater than 10 µM. Also, the AC50 in test [3] was greater than 10 µM; in [4], greater than 30 µM; on B2 bradykinin receptor, greater than 30 µM; in test [5], greater than 30 µM; at Thromboxane A2 receptor, greater than 30 µM; in test [6], greater than 10 µM. The compound further yielded an AC50 at Melanocortin receptor 3 greater than 30 µM.
Regarding `C#C[C@]1(O)CC[C@H]2[C@@H]3CCC4=CC(=O)CCC4=C3C=C[C@@]21CC` [GESTRINONE], the AC50 was greater than 30 µM on Endothelin-1 receptor; greater than 30 µM at Adenosine receptor A2a; 0.01 µM on Glucocorticoid receptor; greater than 30 µM in [1]; greater than 30 µM at Motilin receptor; greater than 30 µM in [2]. The AC50 (in test [3]; in test [4]; on B2 bradykinin receptor; in test [5]; on Thromboxane A2 receptor; in test [6]) was greater than 30 µM in each case. This compound also yielded an AC50 on Melanocortin receptor 3 greater than 30 µM.
For `CCCCCCOC(=O)CCC(=O)CN` [HEXAMINOLEVULINATE], the AC50 (at Endothelin-1 receptor; at Adenosine receptor A2a; on Glucocorticoid receptor; in test [1]; at Motilin receptor; in [2]) was greater than 30 µM each time. Besides, the half-maximal activity concentration (AC50) (in [3]; in [4]; at B2 bradykinin receptor; in [5]; at Thromboxane A2 receptor; in [6]) was greater than 30 µM in each case. Moreover, at Melanocortin receptor 3, the AC50 is greater than 30 µM.
On to `CC(C)OC(=O)C(C(=O)OC(C)C)=C1SC=CS1` [MALOTILATE], for which the AC50 (on Endothelin-1 receptor; on Adenosine receptor A2a; at Glucocorticoid receptor; in test [1]; at Motilin receptor; in [2]) was greater than 30 µM throughout. Besides, the AC50 (in [3]; in test [4]; at B2 bradykinin receptor; in [5]; at Thromboxane A2 receptor; in test [6]) was greater than 30 µM in each case. On Melanocortin receptor 3, this compound showed an AC50 greater than 30 µM.
Consider `CC(CCc1ccccc1)NC(C)C(O)c1ccc(O)cc1` (configuration not stated) [NYLIDRIN], for which the AC50 on Endothelin-1 receptor is greater than 30 µM; on Adenosine receptor A2a it was greater than 30 µM; on Glucocorticoid receptor it was greater than 30 µM; in [1], greater than 10 µM; at Motilin receptor, greater than 10 µM; in [2], greater than 10 µM. Also, the AC50 in [3] was 0.218 µM; in test [4], greater than 10 µM; at B2 bradykinin receptor it was greater than 30 µM; in [5], greater than 30 µM; on Thromboxane A2 receptor, greater than 30 µM; in test [6] it was greater than 10 µM. At Melanocortin receptor 3, this compound displayed an AC50 greater than 30 µM.
